Test results: patent publication US9057106B2, “Method of determination of diagnosis and prognosis in patients with B-cell chronic lymphocytic leukemia and oligonucleotides for use in this method” (MASARYKOVA UNIVERZITA, priority 2009, dated 2015)
Entries after “also recorded” stand apart in the source; their conditions may differ.

Test system: CLL cells
Test: Transwell migration assay of CLL cells in chemokine gradient
Format: cell-based, human
Text: 2006 Nov. 1; 108(9):3143-51; Richardson S J, Matthews C, Catherwood M A, Alexander H D, Carey B S, Farrugia J, Gardiner A, Mould S, Oscier D, Copplestone J A, Prentice A G: ZAP-70 expression is associated with enhanced ability to respond to migratory and survival signals in B-cell chronic lymphocytic leukemia (CLL). Blood. 2006 May 1; 107(9):3584-92). […] CK1ε is the key component of the Wnt/PCP pathway and its quantity in the patients suffering from CLL is increased. As we show in FIG. 5B, the inhibition of CK1ε blocks the effects of Wnt5a on cell migration in the chemokine gradient. […] The extent of the migration of CLL cells in chemokine gradient after Wnt5a stimulation may be determined by the following procedure and used for the determination of the migration capacity of CLL cells that correlates closely with the infiltration of lymphatic organs and the agressiveness of the disease (Till K J, Lin K, Zuzel M., Cawley J C. The chemokine receptor CCR7 and a4 integrin are important for migration of chronic lymphocytic leukemia cells into lymph nodes. Blood. 2002 99: 2977-2984).
CLL cells were isolated by the identical procedure as in Example 6. After isolation the cells were transferred to tissue culture and subjected to Transwell assay. 96 well plates were used for the experiments (Corning, HTS Transwell®-96 Permeable Support with 5.0 μm Pore Polycarbonate Membrane). These plates consist of a bottom part including the wells and a top part that includes the inserts, the bottom of which is formed by the membrane of a defined size of pores. Each sample was measured in triplicate. The wells in the bottom part of the plate always included 0.235 ml of the medium (RPMI 1640, 0.1% FBS, 1% Penicillin Streptomycin, 1% L-glutamine) and further the required concentration of the chemokine or solvent (0.1% BSA in PBS). […] After the cultivation the inserts were removed from the transwell plate, trypsin was added to each well (100 μl) and after 5 minutes of its activity the number of the cells that migrated through the membrane were counted in each well. […]

NC(=O)c1ccc(-c2nc(-c3ccc4c(c3)OCCO4)c(-c3ccccn3)[nH]2)cc1 [D4476, reference compound] was tested, and the “effect of CK1 inhibition on Wnt5a-induced migration of CLL cells in the chemokine gradient” value (CK1 inhibitor D4476 100 uM, with Wnt5a and chemokine) was “blocks migration”.

For CXCL12: chemokine CXCL12, the “migration of CLL cells” value (substance itself (alone), 20 hours, recombinant Wnt5a 200 ng/ml) was “influences positively the migration of CLL cells”.

B1: Wnt5a: recombinant Wnt5a, secreted ligand of the Wnt/PCP pathway (protein, UniProt P41221 62-380, looked up)
Protein Wnt-5a: IIGAQPLCSQLAGLSQGQKKLCHLYQDHMQYIGEGAKTGIKECQYQFRHRRWNCSTVDNTSVFGRVMQIGSRETAFTYAVSAAGVVNAMSRACREGELSTCGCSRAARPKDLPRDWLWGGCGDNIDYGYRFAKEFVDARERERIHAKGSYESARILMNLHNNEAGRRTVYNLADVACKCHGVSGSCSLKTCWLQLADFRKVGDALKEKYDSAAAMRLNSRGKLVQVNSRFNSPTTQDLVYIDPSPDYCVRNESTGSLGTQGRLCNKTSEGMDGCELMCCGRGYDQFKTVQTERCHCKFHWCCYVKCKKCTEIVDQFVCK
In the case of B1, the “migration of CLL cells in the presence of the chemokine CXCL12” value (combination of CXCL12 and recombinant Wnt5a (200 ng/ml), 20 hours) is reported as “positively affect the migration of CLL cells; also recorded: significantly increased the migration of CLL”.
